Marks after values point to notes of the source that are not given here.
How the values were obtained:
[1] = test system: rats with intracerebral hemorrhage; assay: Lethality of rats with intracerebral hemorrhage of average severity; type: in vivo
Description: The chosen model allows to reproduce clinical pattern of […] and is adequate for clinical study of potential neuroprotective agents.
As comparators the following drugs were used: mexydol (“Mexydol” UC Pharmasoft, Russia), 100 mg/kg; citicoline (“Somazina” Ferrer International, SA, Spain), 250 mg/kg; aktovegin (“Aktovegin”, Nycomed, Austria), 16 mg/kg pyracetam (“Pyracetam” Darnitsa, Ukraine), 400 mg/kg. According to the latest clinical guidelines regarding the treatment of patients with CVA approved by the Ministry of Health of Ukraine (Order No. 602 dated 3 Aug. 2012), all these drugs are allowed to be included into schemes for intensive patients therapy with CVA as neuroprotective agents. They were used at recommended doses for preclinical studies (McGrow C. P. Experimental Cerebral Infarction Effects of Pentobarbital in Mongolian Gerbils/C. P. McGrow//Arch. Neurol.-1977.-Vol. 34, No. 6.-P. 334-336). Experimental therapy of acute cerebral ischemia with SI-86 compound and comparator started 1 hour after IUD once a day for 21 days. […] Reference drugs were injected intraperitoneally (ip). Rats of control pathology group were injected by autoblood and as therapy 0.9% NaCI solution was administered calculated for 2 ml/kg iv.
Pseudo-operated rats were exposed to all interventions (anesthesia, craniotomy) excluding autoblood administration that leveled traumatic impact of experimental conditions.
Evaluation of the ability of animals to learn and memorize of aversive stimulus was examined in the test of conditioned response of passive avoidance (CRPA). The technique is based on innate rat instinct to limited shadowy space. The study in rats was conducted in two-compartment unit consisted of two sections—light and dark. An animal was arranged into light compartment, fixing latency time for entering into the dark compartment, wherein rat received current irritation and ran in the light compartment. CRPA retention was tested every other day under latency time change of rat entering into the dark compartment. Also the number of animals was noted not fully entered the dark chamber. Cerebroprotective efficiency criteria of studied compounds were also animal death term (days) and their mortality rate (in %).
Quantitative data were processed using statistical StatPlus 2009 processing. The statistical significance of differences was assessed by Fisher's angular transformation (lethality outcome), also parametric t Student criterion were used in case of normal distribution of variation series, nonparametric W White criterion—in its absence.

[2] = test system: rat heart bioelectrical activity; assay: Acute asphyxia, duration of heart bioelectrical activity; type: in vivo, rats
Description: Acute asphyxia was modeled in rats anesthetized with propofol (60 mg/kg) intraperitoneally (ip) by complete clamping the trachea at electrocardiogram (EGC) registration. The antihypoxic effect was evaluated by duration of heart bioelectric activity (HBA). This model allows to estimate the heart sensitivity to hypoxia. An isoelectric ECG line for 1 minute considered as HBA termination, the pint of HBA termination corresponded to the last QRS complex on the ECG. The calculation of […] activity was performed by the above formula considering a point of last QRS complex registration as a lifetime.
The preliminary screening of test substances was performed on ANHHH model. All derivatives were administered in the same dose of 10 mg/kg […] (iv) 1 hour prior to pathological state modeling. […] The effectiveness of a leader compound was evaluated at doses 5; 10 and 15 mg/kg iv. Mexydol was chosen as a reference drug having antihypoxic action in combination with antioxidant and membrane protective activity, which is successfully used in patients with CVA and IM. Mexydol was administered intraperitoneally (ip) at a dose of 100 mg/kg according to similar scheme.

[3] = 12 h, SI-86 10 mg/kg iv, mexydol 100, citocoline 250, actovegin 16, pyracetam 400 mg/kg

Compound: CSCC[C@@H]1N[C@@]2(C(=O)Nc3ccccc32)[C@@H]2C(=O)N(c3ccc(C)cc3)C(=O)[C@H]12 [SI-86, 5′-(4-Methylphenyl)-3′-[2-(methylthio)ethyl]-3a′,6a′-dihydro-2′H-spiro[indole-3,1′-pyrrolo[3,4-c]pyrrol]-2,4′,6′(1H,3′H,5′H)-trione]
- Lethality, % [1, 3]: 0/0%
- Lethality, abs. [1, 3]: 0/0%
- Lethality, abs. ([1]; 24 h, same doses): 0/0%*^#
- cerebroprotective protection ([1]; 24 h observation, SI-86 10, mexydol 100, citicoline 250 mg/kg): 100%
- Lethality, abs. ([1]; 48 h, same doses): 0/0%*^#&•$
- Lethality, % ([1]; 72 h, same doses): 5.9%
- Lethality, abs. ([1]; 72 h, same doses): 2
- Lethality, % ([1]; 96 h, same doses): 11.8%
- Lethality, abs. ([1]; 96 h, same doses): 4
- Antihypoxic activity ([2]; 5 mg/kg iv): +12.1%
- Duration of heart bioelectrical activity ([2]; 5 mg/kg iv): 13.0 ± 1.5 min
- Antihypoxic activity ([2]; 10 mg/kg iv): +5.8%
- Duration of heart bioelectrical activity ([2]; 10 mg/kg iv): 12.3 ± 1.4 min
- Antihypoxic activity ([2]; 15 mg/kg iv): −2.8%
- Duration of heart bioelectrical activity ([2]; 15 mg/kg iv): 11.3 ± 1.0 min

— patent US20160297828A1, “SPIROCYCLIC COMPOUNDS CONTAINING SPIRO[INDOLYL-3,1'-PYRROLO[3,4-C]PYRROLE] CORE AND SULPHUR-CONTAINING AMINO ACID RESIDUES” (priority 2013, published 2016)
